Experimental data as given in patent US9708318B2, “Bicyclic heterocycles as FGFR4 inhibitors” (Incyte Corporation, priority 2015, dated 2017).
Read-outs that look alike come from different tables or passages of the source.

How the values were obtained:
[1] = target: FGFR2 (Homo sapiens (Human), UniProt P21802); assay: FGFR Enzymatic Assay (FRET peptide phosphorylation), FGFR2; assay type: biochemical
Protocol: (§1) The inhibitor potency of the exemplified compounds was measured in an enzyme assay that measures peptide phosphorylation using FRET measurements to detect product formation. Inhibitors were serially diluted in DMSO and a volume of 0.5 μL was transferred to the wells of a 384-well plate.
(§2) The enzymes were purchased from Millipore or Invitrogen.
(§3) GraphPad prism3 was used to analyze the data.

[2] = target: FGFR3 enzyme (Homo sapiens (Human), UniProt P22607); assay: FGFR Enzymatic Assay (FRET peptide phosphorylation), FGFR3; assay type: biochemical; settings: for FGFR1/FGFR3 IC50 ratio: FGFR3 selectivity; for IC50: read-out: FGFR3 IC50
Protocol: as §1, §3

[3] = target: FGFR4 (Homo sapiens (Human), UniProt P22455); assay: FGFR Enzymatic Assay (FRET peptide phosphorylation), FGFR4; assay type: biochemical; settings: for FGFR1/FGFR4 IC50 ratio / FGFR2/FGFR4 IC50 ratio / FGFR3/FGFR4 IC50 ratio: FGFR4 selectivity
Protocol: as §1, §2, §3

[4] = target: FGFR1 (Homo sapiens (Human), UniProt P11362); assay: FGFR Enzymatic Assay (FRET peptide phosphorylation), FGFR1
[5] = pre-incubated for 5 to 10 minutes
[6] = read-out: FGFR1 IC50, pre-incubated for 5 to 10 minutes
[7] = read-out: FGFR1 IC50, pre-incubated for 4 hours
[8] = FGFR1 IC50 (nM), pre-incubated for 4 hours

Sequence of FGFR3 enzyme (P22607 23-806): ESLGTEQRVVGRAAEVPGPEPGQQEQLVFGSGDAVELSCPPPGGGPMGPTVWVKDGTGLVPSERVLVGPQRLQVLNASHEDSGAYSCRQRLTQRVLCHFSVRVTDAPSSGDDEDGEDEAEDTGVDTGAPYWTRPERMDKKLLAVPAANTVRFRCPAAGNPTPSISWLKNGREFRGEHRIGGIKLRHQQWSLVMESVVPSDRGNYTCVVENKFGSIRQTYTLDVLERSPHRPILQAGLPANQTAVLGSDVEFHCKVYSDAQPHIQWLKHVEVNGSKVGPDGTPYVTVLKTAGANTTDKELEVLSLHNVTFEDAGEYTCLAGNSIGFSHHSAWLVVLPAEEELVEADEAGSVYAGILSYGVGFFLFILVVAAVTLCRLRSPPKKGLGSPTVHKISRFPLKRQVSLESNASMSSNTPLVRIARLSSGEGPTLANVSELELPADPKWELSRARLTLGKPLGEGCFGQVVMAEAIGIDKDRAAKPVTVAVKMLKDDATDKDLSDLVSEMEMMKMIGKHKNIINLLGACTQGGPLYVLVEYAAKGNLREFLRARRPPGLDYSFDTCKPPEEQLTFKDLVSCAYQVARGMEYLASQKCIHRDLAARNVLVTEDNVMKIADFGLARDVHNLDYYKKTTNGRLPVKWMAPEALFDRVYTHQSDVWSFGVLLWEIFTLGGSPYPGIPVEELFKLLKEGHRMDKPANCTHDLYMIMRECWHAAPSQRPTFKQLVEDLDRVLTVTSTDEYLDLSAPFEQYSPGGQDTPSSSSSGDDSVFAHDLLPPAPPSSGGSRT
Sequence of FGFR1 (P11362 22-822): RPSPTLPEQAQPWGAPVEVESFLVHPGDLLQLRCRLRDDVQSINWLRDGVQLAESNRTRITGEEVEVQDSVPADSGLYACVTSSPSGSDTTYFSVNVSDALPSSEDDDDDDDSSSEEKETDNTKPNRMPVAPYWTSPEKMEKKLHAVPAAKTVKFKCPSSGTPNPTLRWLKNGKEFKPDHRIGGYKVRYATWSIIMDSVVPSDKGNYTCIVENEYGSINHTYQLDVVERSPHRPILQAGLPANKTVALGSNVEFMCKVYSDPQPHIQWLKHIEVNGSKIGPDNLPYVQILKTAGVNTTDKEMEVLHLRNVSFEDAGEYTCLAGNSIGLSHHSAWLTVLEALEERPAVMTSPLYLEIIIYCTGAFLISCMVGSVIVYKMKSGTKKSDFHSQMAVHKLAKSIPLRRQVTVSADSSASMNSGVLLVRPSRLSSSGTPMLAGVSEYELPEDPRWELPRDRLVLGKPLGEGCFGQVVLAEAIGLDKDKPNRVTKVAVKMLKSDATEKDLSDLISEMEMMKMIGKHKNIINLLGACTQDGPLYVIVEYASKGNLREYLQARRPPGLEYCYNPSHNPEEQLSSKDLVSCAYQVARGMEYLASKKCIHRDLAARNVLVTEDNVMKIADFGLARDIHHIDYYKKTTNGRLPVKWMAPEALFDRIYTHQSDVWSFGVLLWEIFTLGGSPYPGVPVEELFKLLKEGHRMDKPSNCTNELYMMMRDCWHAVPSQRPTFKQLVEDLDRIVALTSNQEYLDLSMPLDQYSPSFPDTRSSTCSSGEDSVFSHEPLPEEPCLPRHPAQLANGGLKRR
Sequence of FGFR4 (P22455 22-802): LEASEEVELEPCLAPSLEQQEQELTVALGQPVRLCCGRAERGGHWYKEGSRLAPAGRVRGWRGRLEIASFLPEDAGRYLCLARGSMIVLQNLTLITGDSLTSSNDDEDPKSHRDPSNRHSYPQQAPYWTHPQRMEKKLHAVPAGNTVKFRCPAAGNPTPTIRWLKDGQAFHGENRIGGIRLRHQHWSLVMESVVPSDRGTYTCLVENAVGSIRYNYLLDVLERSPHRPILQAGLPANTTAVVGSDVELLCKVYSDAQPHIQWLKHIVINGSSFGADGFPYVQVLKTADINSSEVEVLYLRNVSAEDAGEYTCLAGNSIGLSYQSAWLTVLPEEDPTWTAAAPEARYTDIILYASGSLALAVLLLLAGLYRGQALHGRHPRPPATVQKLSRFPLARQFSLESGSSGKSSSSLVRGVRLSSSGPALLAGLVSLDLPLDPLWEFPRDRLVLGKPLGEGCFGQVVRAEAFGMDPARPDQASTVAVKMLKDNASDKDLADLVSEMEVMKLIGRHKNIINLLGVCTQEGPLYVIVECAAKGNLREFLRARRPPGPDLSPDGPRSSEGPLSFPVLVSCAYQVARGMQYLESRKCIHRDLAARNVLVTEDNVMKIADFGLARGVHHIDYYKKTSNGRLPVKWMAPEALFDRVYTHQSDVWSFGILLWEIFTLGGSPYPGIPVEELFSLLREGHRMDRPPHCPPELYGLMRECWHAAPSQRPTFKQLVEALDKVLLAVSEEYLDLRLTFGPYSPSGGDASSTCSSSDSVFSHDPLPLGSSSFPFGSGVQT
Sequence of FGFR2 (P21802 22-821): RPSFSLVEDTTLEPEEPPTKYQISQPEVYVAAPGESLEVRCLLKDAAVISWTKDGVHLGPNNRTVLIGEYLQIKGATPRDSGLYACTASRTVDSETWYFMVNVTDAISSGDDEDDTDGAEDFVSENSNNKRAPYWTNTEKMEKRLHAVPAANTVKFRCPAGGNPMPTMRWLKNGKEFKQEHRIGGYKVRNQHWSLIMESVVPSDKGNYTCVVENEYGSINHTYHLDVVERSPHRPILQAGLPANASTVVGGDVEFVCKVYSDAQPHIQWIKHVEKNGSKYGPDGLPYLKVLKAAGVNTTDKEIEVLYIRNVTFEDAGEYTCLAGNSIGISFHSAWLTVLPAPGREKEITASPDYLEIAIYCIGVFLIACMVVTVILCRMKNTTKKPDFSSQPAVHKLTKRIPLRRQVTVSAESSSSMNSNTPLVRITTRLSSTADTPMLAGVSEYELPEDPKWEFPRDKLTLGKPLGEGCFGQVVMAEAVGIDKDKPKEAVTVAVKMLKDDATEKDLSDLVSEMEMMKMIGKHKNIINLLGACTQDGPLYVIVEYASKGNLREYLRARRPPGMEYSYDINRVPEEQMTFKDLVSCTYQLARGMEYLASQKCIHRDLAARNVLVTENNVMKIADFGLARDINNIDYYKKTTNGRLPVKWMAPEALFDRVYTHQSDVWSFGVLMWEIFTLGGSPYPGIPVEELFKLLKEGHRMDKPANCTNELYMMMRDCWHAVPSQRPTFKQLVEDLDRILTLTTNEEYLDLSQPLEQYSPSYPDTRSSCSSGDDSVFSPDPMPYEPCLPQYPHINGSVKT

| SMILES | IC50 [1, 5] | IC50 ([1]; pre-incubated for 4 hours) | FGFR1/FGFR3 IC50 ratio ([2]; pre-incubated for 4 hours) | IC50 [2, 5] | IC50 ([2]; pre-incubated for 4 hours) | FGFR1/FGFR4 IC50 ratio [3, 5] | FGFR2/FGFR4 IC50 ratio [3, 5] | FGFR3/FGFR4 IC50 ratio [3, 5] | FGFR1/FGFR4 IC50 ratio ([3]; pre-incubated for 4 hours) | FGFR2/FGFR4 IC50 ratio ([3]; pre-incubated for 4 hours) | FGFR3/FGFR4 IC50 ratio ([3]; pre-incubated for 4 hours) | IC50 [3, 5] | IC50 ([3]; pre-incubated for 4 hours) | IC50 [4, 6] | IC50 [4, 7] | IC50 ([4]; FGFR1 IC50 (nM), pre-incubated for 5 to 10 minutes) | IC50 [4, 8] |
| --- | --- | --- | --- | --- | --- | --- | --- | --- | --- | --- | --- | --- | --- | --- | --- | --- | --- |
| COc1cc(OC)c(F)c(N2Cc3cnc(-c4cncc(N5CCOCC5)c4)cc3C3(CC3)C2=O)c1F [Example 6, 2′-(2,6-difluoro-3,5-dimethoxyphenyl)-6′-(5-morpholinopyridin-3-yl)-1′H-spiro[cyclopropane-1,4′-[2,7]naphthyridin]-3′(2′H)-one] | > 200 nM | > 200 nM | >3 | 30 to 200 nM | 30 to 200 nM | >100 | >100 | >50 | >100 | >100 | >25 | < 10 nM | < 10 nM | > 200 nM | > 200 nM | – | – |
| COc1cc(OC)c(F)c(N2Cc3cnc(-c4cc(N)cnc4C)cc3C3(CC3)C2=O)c1F [Example 7, 6′-(5-amino-2-methylpyridin-3-yl)-2′-(2,6-difluoro-3,5-dimethoxyphenyl)-1′H-spiro[cyclopropane-1,4′-[2,7]naphthyridin]-3′(2′H)-one] | > 200 nM | > 200 nM | >1 | > 200 nM | > 200 nM | >25 | >10 | >10 | >50 | >25 | >25 | 30 to 200 nM | 30 to 200 nM | > 200 nM | > 200 nM | – | – |
| COc1cc(OC)c(F)c(N2Cc3cnc(-c4cncc(C#N)c4)cc3C3(CC3)C2=O)c1F [Example 8, 5-(2′-(2,6-difluoro-3,5-dimethoxyphenyl)-3′-oxo-2′,3′-dihydro-1′H-spiro[cyclopropane-1,4′-[2,7]naphthyridine]-6′-yl)nicotinonitrile] | > 200 nM | > 200 nM | >5 | 30 to 200 nM | 30 to 200 nM | >50 | >10 | >10 | >50 | >10 | >10 | 10 to 30 nM | 10 to 30 nM | > 200 nM | > 200 nM | – | – |
| COc1cncc(-c2cc3c(cn2)CN(c2c(F)c(OC)cc(OC)c2F)C(=O)C32CC2)c1 [Example 10, 2′-(2,6-difluoro-3,5-dimethoxyphenyl)-6′-(5-methoxypyridin-3-yl)-1′H-spiro[cyclopropane-1,4′-[2,7]naphthyridin]-3′(2′H)-one] | 10 to 30 nM | 10 to 30 nM | >1 | 10 to 30 nM | 10 to 30 nM | >25 | >10 | >10 | >25 | >25 | >10 | < 10 nM | < 10 nM | – | – | 30 to 200 nM | 30 to 200 nM |
| COc1cc(OC)c(F)c(N2Cc3cnc(-c4cncc(Cl)c4)cc3C3(CC3)C2=O)c1F [Example 11, 6′-(5-chloropyridin-3-yl)-2′-(2,6-difluoro-3,5-dimethoxyphenyl)-1′H-spiro[cyclopropane-1,4′-[2,7]naphthyridin]-3′(2′H)-one] | > 200 nM | > 200 nM | >1 | 30 to 200 nM | > 200 nM | >50 | >20 | >25 | >25 | >25 | >10 | 10 to 30 nM | 10 to 30 nM | > 200 nM | > 200 nM | – | – |
| COc1cc(OC)c(F)c(N2Cc3cnc(-c4cncc(-n5ccnc5)c4)cc3C3(CC3)C2=O)c1F [Example 12, 6′-(5-(1H-imidazol-1-yl)pyridin-3-yl)-2′-(2,6-difluoro-3,5-dimethoxyphenyl)-1′H-spiro[cyclopropane-1,4′-[2,7]naphthyridin]-3′(2′H)-one] | 30 to 200 nM | 30 to 200 nM | >3 | 30 to 200 nM | 30 to 200 nM | >50 | >25 | >20 | >50 | >25 | >10 | < 10 nM | < 10 nM | > 200 nM | > 200 nM | – | – |
| COc1cc(OC)c(F)c(N2Cc3cnc(-c4cncc(C(=O)N5CCOCC5)c4)cc3C3(CC3)C2=O)c1F [Example 13, 2′-(2,6-difluoro-3,5-dimethoxyphenyl)-6′-(5-(morpholine-4-carbonyl)pyridin-3-yl)-1′H-spiro[cyclopropane-1,4′-[2,7]naphthyridin]-3′(2′H)-one] | 30 to 200 nM | 30 to 200 nM | >3 | 30 to 200 nM | 30 to 200 nM | >50 | >20 | >10 | >50 | >25 | >10 | < 10 nM | < 10 nM | > 200 nM | > 200 nM | – | – |
| COc1cc(OC)c(F)c(N2Cc3cnc(-c4cncc(S(=O)(=O)N5CCOCC5)c4)cc3C3(CC3)C2=O)c1F [Example 14, 2′-(2,6-difluoro-3,5-dimethoxyphenyl)-6′-(5-(morpholinosulfonyl)pyridin-3-yl)-1′H-spiro[cyclopropane-1,4′-[2,7]naphthyridin]-3′(2′H)-one] | 30 to 200 nM | 30 to 200 nM | >5 | 10 to 30 nM | 30 to 200 nM | >25 | >5 | >5 | >50 | >10 | >1 | < 10 nM | < 10 nM | > 200 nM | > 200 nM | – | – |
| COc1cc(OC)c(F)c(N2Cc3cnc(-c4cncc(CN5CCOCC5)c4)cc3C3(CC3)C2=O)c1F [Example 16, 2′-(2,6-difluoro-3,5-dimethoxyphenyl)-6′-(5-(morpholinomethyl)pyridin-3-yl)-1′H-spiro[cyclopropane-1,4′-[2,7]naphthyridin]-3′(2′H)-one] | 30 to 200 nM | 30 to 200 nM | >1 | 30 to 200 nM | 30 to 200 nM | >25 | >10 | >10 | >50 | >25 | >10 | < 10 nM | < 10 nM | > 200 nM | > 200 nM | – | – |
| COc1cc(OC)c(F)c(N2Cc3cnc(-c4ccccc4)cc3C3(CC3)C2=O)c1F [Example 17, 2′-(2,6-difluoro-3,5-dimethoxyphenyl)-6′-phenyl-1′H-spiro[cyclopropane-1,4′-[2,7]naphthyridin]-3′(2′H)-one] | – | 30 to 200 nM | >10 | – | 10 to 30 nM | – | – | – | – | – | – | – | 10 to 30 nM | – | > 200 nM | – | – |
| CNC(=O)c1ccc(-c2cc3c(cn2)CN(c2c(F)c(OC)cc(OC)c2F)C(=O)C32CC2)cn1 [Example 18, 5-(2′-(2,6-difluoro-3,5-dimethoxyphenyl)-3′-oxo-2′,3′-dihydro-1′H-spiro[cyclopropane-1,4′-[2,7]naphthyridine]-6′-yl)-N-methylpicolinamide] | – | < 10 nM | >5 | – | < 10 nM | – | – | – | – | – | – | – | 10 to 30 nM | – | – | – | 10 to 30 nM |
| CNC(=O)c1ccc(-c2cc3c(cn2)CN(c2c(F)c(OC)cc(OC)c2F)C(=O)C32CC2)cc1 [Example 19, 4-(2′-(2,6-difluoro-3,5-dimethoxyphenyl)-3′-oxo-2′,3′-dihydro-1′H-spiro[cyclopropane-1,4′-[2,7]naphthyridine]-6′-yl)-N-methylbenzamide] | – | < 10 nM | >5 | – | < 10 nM | – | – | – | – | – | – | – | < 10 nM | – | – | – | 10 to 30 nM |
| COc1cc(OC)c(F)c(N2Cc3cnc(-c4ccc(C#N)nc4)cc3C3(CC3)C2=O)c1F [Example 20, 5-(2′-(2,6-difluoro-3,5-dimethoxyphenyl)-3′-oxo-2′,3′-dihydro-1′H-spiro[cyclopropane-1,4′-[2,7]naphthyridine]-6′-yl)picolinonitrile] | – | 10 to 30 nM | >5 | – | 10 to 30 nM | – | – | – | – | – | – | – | 10 to 30 nM | – | – | – | 30 to 200 nM |
| COc1cc(OC)c(F)c(N2Cc3cnc(-c4cn(C)nc4C)cc3C3(CC3)C2=O)c1F [Example 21, 2′-(2,6-difluoro-3,5-dimethoxyphenyl)-6′-(1,3-dimethyl-1H-pyrazol-4-yl)-1′,2′-dihydro-3′H-spiro[cyclopropane-1,4′-[2,7]naphthyridin]-3′-one] | – | < 10 nM | >5 | – | < 10 nM | – | – | – | – | – | – | – | 10 to 30 nM | – | – | – | 10 to 30 nM |
| CCN1C(=O)N(c2c(F)c(OC)cc(OC)c2F)Cc2cnc(-c3ccccc3)cc21 [Example 22, 3-(2,6-difluoro-3,5-dimethoxyphenyl)-1-ethyl-7-phenyl-3,4-dihydropyrido[4,3-d]pyrimidin-2(1H)-one] | – | 10 to 30 nM | >5 | – | 10 to 30 nM | – | – | – | – | – | – | – | 10 to 30 nM | – | – | – | 30 to 200 nM |
